Test [1] deals with IL-7 signalling (pStat5) in Ba/F3-IL7R cells. Kind of test: IL-7-induced phospho-Stat5 in Ba/F3-IL7R cells (phosphoflow). In kind it is cell-based, murine. Particulars: Ba/F3-IL7R cells; result in words. As for the experimental part: (§1) Ba/F3 cells (kindly provided by a person from The Walter and Eliza Hall Institute of Medical Research) were infected with pMIG-R1/Il7r retroviral supernatants produced in 293T cells, and transduced cells were sorted with a BD Influx (BD Australia) and selected by culture in medium supplemented with 5 ng/mL rmIL-7 (#217-17, Pepro Tech, Rocky Hill NJ, USA) for 7 days. Ba/F3 cells stably expressing Il7r (Ba/F3-IL7R) were infected with TxTCPVIR-Stat5-CA retroviral supernatants produced in 293T. Cell sorting was performed with a BD Influx and transduced cells were treated with doxycycline for 48 h to induce the expression of the Stat5-CA-T2A-mCherry fusion protein.
Phosphoflow analysis was performed as previously described. Briefly, 2 × 10^6 cells stained for surface markers were subsequently resuspended into PBS 1× + 4% v/v paraformaldehyde and incubated for 10 min at 4 °C for fixation. Fixed cells were washed twice using PBS 1×, then resuspended in pre-chilled at −20 °C Perm Buffer III (BD Pharmingen) and incubated 30 min at 4 °C for permeabilization. Cells were washed twice using PBS 1× and incubated overnight at 4 °C in PBS 1× + 2% v/v fetal calf serum (FCS) with Cell Signalling purified antibodies (Genesearch Pty Ltd, Arundel QLD, Australia) against pSTAT5 (Tyr694; #9359), phospho-p38 MAPK (Thr180/Tyr182; #4511), phospho-p44/42 (Erk1/2; #9102), phospho-S6 (Ser235/236; #4856) and phospho-Akt (Ser473; #9271) or isotype control. For intracellular HES1 detection, cells stained for surface markers were subsequently fixed and permeabilized using the BD Cytofix/Cytoperm^TM Kit and incubated overnight at 4 °C in PBS 1× + 2% v/v FCS with a purified antibody against HES1 (D6PU; #11988, Cell Signalling) or isotype control. After staining with primary antibodies for phosphoflow or intracellular detection, cells were incubated in permeabilization buffer with donkey Alexa Fluor 488-conjugated anti-rabbit secondary antibody (A-21206, lot #1910751, Molecular Probes, Invitrogen) or goat Alexa Fluor 546-conjugated anti-rabbit secondary antibody (A-11035, lot #1904467, Molecular Probes, Invitrogen) for 1 h on ice, and washed twice in PBS 1×. Fluorescence-activated cell sorting (FACS) analysis was performed using LSRII and LSR Fortessa cytometers, following the gating strategies described in Supplementary Fig. 11. Cell sorting was performed with a FACSAria or BD Influx.
For in vitro IL-7 stimulation assays, cells were starved in serum-free DMEM at 37 °C, then incubated with either vehicle or Dynole 34-2 or Ruxolitinib (INCB018424; #S1378, Selleckchem), or DAPT (GSI-IX; #S2215, Selleckchem) resuspended in DMSO for 1 h. Thymocytes were subsequently stimulated with 25 ng/mL IL-7 at 37 °C for 20 min and washed twice using cold PBS 1×. Cells were incubated with 25 ng/mL Rat IgG (Sigma-Aldrich Pty Ltd, Castle Hill NSW, Australia) and with a PE-conjugated antibody for detection of IL-7R (CD127) for 1 h on ice, as described in the FACS analysis section. PE-conjugated isotype was used as negative control. Cells were washed twice, fixed and phosphoflow analysis performed as described in the FACS analysis section. The analysis was performed in triplicate and the mean fluorescence intensity (MFI) observed without stimulation was reported as 100%.

Test [2] relates to Ba/F3-IL7R^Stat5-CA cells. Kind of test: Cytotoxic activity in IL-7-dependent and IL-7-independent Ba/F3-IL7R^Stat5-CA cells. Format: cell-based, murine. The note with it: for Survival (%) over survival at day 0, reported as 100%: Ba/F3-IL7R^Stat5-CA cells, dose = IC50 or LC50 of each drug.
Excerpt: The doxycycline-inducible dual-colour TRMPVIR (TRE-dsRed-miR30/shRNA-PGK-Venus-IRES-rtTA3) retroviral vector[84] was kindly given by R. A. Dickins and was modified by replacing the dsRed-miR30/shRNA sequence by a T2A self-cleaving peptide[85] fusioned with the mCherry fluorescent protein (from TRIPZ, Addgene) inserted into the BamHI and EcoRI sites of the plasmid downstream of the TRE promoter to generate the TxTCPVIR (TRE-gene-T2A-mCherry-PGK-Venus-IRES-rtTA3) retroviral vector. Using standard cloning techniques, we inserted the full-length sequence of Stat5-CA from the pMig-R1 construct into the TxTCPVIR vector to generate the TxTCPVIR-Stat5-CA construct. All subcloned constructs were verified by DNA sequencing (Micromon, Monash University, Australia). Detailed cloning strategies, primers sequences and vectors are available on request.
as §1
Flow cytometry analyses were performed as previously described[10],[86] on single-cell suspensions stained using BD Pharmingen antibodies (BD Australia, North Ryde NSW, Australia) against mouse CD4 (RM4-5), CD8 (53-6.7), CD25 (PC61.5), CD44 (IM7), CD45.1 (A20), CD45.2 (104), Thy1.2 (53-2.1; #561616), TCRβ (H57-597), CD117 (ACK45), CD135 (A2F10.1), CD150 (TC15-12F12.2; #562373), B220 (RA3-6B2; #563708), CD3 (145-2C11; #563004), CD19 (ID3; #557655), Gr-1 (RB6-8C5; #563299 and #565033), CD11b (M1/70; #563015 and #560455), Ter119 (Ter119; #565523 and #557909), Sca-1 (D7; #558160) and an eBioscience antibody (eBioscience, Invitrogen) against mouse NOTCH1 (22E5). DN3 populations and IL-7R were stained using BioLegend antibodies (Australian Biosearch, Balcatta WA, Australia) against mouse CD28 (E18) and CD127 (A7R34), respectively. Apoptosis was measured using an antibody against AnnexinV (#556420, BD Australia) and the […] Sytox Blue (BD Australia) following the manufacturer’s protocol.

The subject of the next test is DN3a thymocytes. Description: Relative viability and LC50 on DN3a thymocytes of WT, Lmo2^Tg, Lmo2^Tg;STAT5-CA^Tg and Lmo2^Tg;N1-ICD^Tg mice, 48 h. Particulars: Lmo2Tg;STAT5-CATg. As for the experimental part: Pre-leukemic and leukemic thymocytes were purified by flow cytometry and co-cultured on GFP-positive OP9 and OP9-DL1 stromal cell lines, as described previously. Thymocytes were co-cultured in reconstituted alpha-MEM medium (#12318, Gibco, Grand Island NY, USA) supplemented with 20% FCS (#12318), HEPES 10 mM (#15630-080), sodium pyruvate 1 mM (#11360-070), β-mercaptoethanol 55 μM (#21985-023), Glutamax 2 mM (#15750-060), 1% Penicillin/Streptomycin (#15140-122), 5 ng/mL rmFLT-3 ligand (#250-31 L, Pepro Tech), 5 ng/mL rmIL-7 (#217-17, Pepro Tech) and 25 ng/mL rmSCF (#250-03, Pepro Tech). After 48 h of co-culture, thymocytes were counted and analysed by FACS. […]
viability of wild-type (WT), Lmo2 Tg, Lmo2Tg;STAT5-CA Tg and Lmo2Tg;N1-ICD Tg DN3a thymocytes […]
normalized to cells treated with vehicle (%DMSO). Mean ± SEM of n=4 biological replicates. b, […]
thymocytes from 6-week old wild-type (WT), Lmo2 Tg, Lmo2Tg;STAT5-CATg and Lmo2Tg ;N1-ICD Tg mice. Mean ± SD of n=4 biological replicates are shown. 2-way ANOVA with Tukey’s correction test; […]
(1 picture or pasted object on this page, not shown here)
*P<0.05, *** P<0.001 compared to WT; #P<0.05, ##P<0.01, ###P<0.001 compared to L mo2Tg. c, Levels of pStat5 (left) after stimulation with IL-7 , as well as Hes1 expression (right) after co-culture on OP9- […]
(0.2 µM), Ruxolitinib (0.2 µM) and DAPT (0.1 µM). Unstimulated cells were used as negative controls (dashed line). Student’s t -test, ** P<0.01, *** P<0.001 compared to unstimulated cells. MFI ± SEM, 1-way ANOVA with Tukey’s correction test; **P<0.01, *** P<0.001 compared to vehicle. d, Clonogenic assay of normal murine hematopoietic stem and progenitor cells (HSPCs) cultured in the presence […]
± SD, Student’s t -test ( n=4) **P<0.01 compared to vehicle. e, Relative viability of wild-type (WT), […]
2 (0.2 µM), Ruxolitinib (0.2 µM) and DAPT (0.1 µM) for 48 hours. Viability was normalized to cells treated with vehicle (%DMSO, which was reported as 100). Mean ± SEM, 2-way ANOVA with Tukey’s correction test, **P<0.01, *** P<0.001 compared to vehicle.

Where “and” joins values, the source holds several entries; their conditions need not be identical. Identical values can stand only once.

As for `O=C(NN=Cc1cc(O)c(O)cc1O)c1cc2ccccc2cc1O` [Dyngo 4a, 3-Hydroxy-N’-[(2,4,5-trihydroxyphenyl)-methylidene]-naphthalene-2-carbohydrazide, reference compound], in test [1], the “inhibition of IL-7 signalling as measured by loss of phospho-Stat5” value is recorded as “dose-dependent inhibition”.
Take `CC[C@]1(O)C[C@H]2CN(CCc3c([nH]c4ccccc34)[C@@](C(=O)OC)(c3cc4c(cc3OC)N(C=O)[C@H]3[C@@](O)(C(=O)OC)[C@H](OC(C)=O)[C@]5(CC)C=CCN6CC[C@]43[C@@H]65)C2)C1` [Vincristine]: the “Survival (%) over survival at day 0, reported as 100%” value in test [2] (+IL-7 -DOX, 0 h) is 100.02% and 100.26% and 100.28% and 99.72% and 99.53% and 100.47%; in test [2] (+IL-7 -DOX, 24 h), 97.78% and 97.03% and 92.76% and 93.67% and 88.90% and 79.18%; in test [2] (+IL-7 -DOX, 48 h) it was 60.76% and 61.24% and 44.94% and 67.20% and 75.05% and 65.49%; in test [2] (+IL-7 -DOX, 72 h) it was 42.05% and 38.67% and 50.69% and 46.55% and 54.10% and 54.58%; in test [2] (+IL-7 -DOX, 96 h), 9.57% and 5.19% and 6.30%; in test [2] (-IL-7 +DOX, 0 h), 100.62% and 100.47% and 99.53% and 102.59% and 99.98% and 100.02%. The “Survival (%) over survival at day 0, reported as 100%” value in test [2] (-IL-7 +DOX, 24 h) is 84.77% and 83.72% and 89.11% and 91.00% and 83.57% and 82.00%; in test [2] (-IL-7 +DOX, 48 h) it was 82.10% and 78.50% and 82.90% and 69.10% and 67.20% and 82.60%; in test [2] (-IL-7 +DOX, 72 h), 60.60% and 57.90% and 64.60% and 57.00% and 62.20% and 65.20%; in test [2] (-IL-7 +DOX, 120 h), 34.10% and 40.50% and 30.80% and 32.50% and 34.90% and 26.60%. Moreover, the “sensitivity of Ba/F3-IL7R^Stat5-CA cells with constitutive pStat5 (doxycycline)” value in test [2] (result in words) is given as “equally effective”.
In the case of `CCCCCCCCNC(=O)/C(C#N)=C/c1cn(CCCN(C)C)c2ccccc12` [Dynole 34], in the test on DN3a thymocytes, the “Survival (% DMSO)” value is 50.05 % DMSO and 55.36 % DMSO and 37.5 % DMSO and 40.03 % DMSO.
Turning to `O=C(N/N=C/c1ccc(O)c(O)c1)c1cc2ccccc2cc1O` [Dynasore, reference compound], the “inhibition of IL-7 signalling as measured by loss of phospho-Stat5” value in test [1] is given as “dose-dependent inhibition”.
